How the values were obtained:
Experiment in all cases: relative viability (nuclei count vs DMSO), 5 days (fraction); higher = more cells survive
[1] = compound: COc1cc2ncn(-c3cc(OCc4ccccc4C(F)(F)F)c(C(N)=O)s3)c2cc1OC + CC(C)C[C@H](NC(=O)[C@H](Cc1ccccc1)NC(=O)c1cnccn1)B(O)O [Bortezomib] (partner 0.002 µM)
Summary of the method: (§1)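 Lung cancer cell lines in 1536-well plates got either a single drug or a fixed anchor-drug dose together with five library-drug doses (not always all listed) in √10 steps, by pin tool, on the day after seeding. Nuclei were counted after 5 days, and relative viability is the treated-to-vehicle ratio of nuclei counts. Values are medians of duplicate plates.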

[2] = compound: COc1cc2ncn(-c3cc(OCc4ccccc4C(F)(F)F)c(C(N)=O)s3)c2cc1OC + CS(=O)(=O)N1CCN(Cc2cc3nc(-c4cccc5[nH]ncc45)nc(N4CCOCC4)c3s2)CC1 [Pictilisib] (partner 1 µM)
Summary of the method: as §1

[3] = compound: COc1cc2ncn(-c3cc(OCc4ccccc4C(F)(F)F)c(C(N)=O)s3)c2cc1OC + O=C(c1cc(Cc2n[nH]c(=O)c3ccccc23)ccc1F)N1CCN(C(=O)C2CC2)CC1 [Olaparib] (partner 8 µM)
Summary of the method: as §1

[4] = compound: COc1cc2ncn(-c3cc(OCc4ccccc4C(F)(F)F)c(C(N)=O)s3)c2cc1OC + CC(=O)Nc1cccc(-n2c(=O)n(C3CC3)c(=O)c3c(Nc4ccc(I)cc4F)n(C)c(=O)c(C)c32)c1 [Trametinib] (partner 0.02 µM)
Summary of the method: as §1

Cell Line | relative viability ([1]; first compound 0.05 µM) | relative viability ([1]; first compound 0.1581 µM) | relative viability ([1]; first compound 0.5 µM) | relative viability ([1]; first compound 1.581 µM) | relative viability ([1]; first compound 5 µM) | relative viability ([2]; first compound 0.05 µM) | relative viability ([2]; first compound 0.1581 µM) | relative viability ([2]; first compound 0.5 µM) | relative viability ([2]; first compound 1.581 µM) | relative viability ([2]; first compound 5 µM) | relative viability ([3]; first compound 0.05 µM) | relative viability ([3]; first compound 0.1581 µM) | relative viability ([3]; first compound 0.5 µM) | relative viability ([3]; first compound 1.581 µM) | relative viability ([3]; first compound 5 µM) | relative viability ([4]; first compound 0.05 µM) | relative viability ([4]; first compound 0.1581 µM) | relative viability ([4]; first compound 0.5 µM) | relative viability ([4]; first compound 1.581 µM) | relative viability ([4]; first compound 5 µM)
201T | 1.12 | 1.13 | 1.12 | 0.902 | 0.365 | 0.717 | 0.743 | 0.682 | 0.319 | 0.247 | 0.747 | 0.83 | 0.871 | 0.27 | 0.246 | 0.707 | 0.728 | 0.691 | 0.647 | 0.301
A549 |  |  |  |  |  | 0.606 | 0.55 | 0.0875 | 0.0523 | 0.0706 | 0.344 | 0.215 | 0.149 | 0.0485 | 0.0961 |  |  |  |  | 
A-427 | 1.05 | 1.05 | 0.752 | 0.258 | 0.251 | 0.76 | 0.527 | 0.729 | 0.262 | 0.117 | 0.745 | 0.802 | 0.54 | 0.267 | 0.169 | 0.833 | 0.52 | 0.59 | 0.336 | 0.187
ABC-1 | 0.304 | 0.294 | 0.281 | 0.242 | 0.233 | 0.645 | 0.791 | 0.634 | 0.284 | 0.229 | 0.705 | 0.837 | 0.64 | 0.477 | 0.429 |  |  |  |  | 
BEN | 0.911 | 0.476 | 0.801 | 0.253 | 0.244 | 0.653 | 0.557 | 0.471 | 0.223 | 0.233 | 1.11 | 1.01 | 0.636 | 0.425 | 0.359 | 1.16 | 1.03 | 0.954 | 0.546 | 0.52
CAL-12T | 0.944 | 0.821 | 0.608 | 0.242 | 0.199 | 0.351 | 0.389 | 0.323 | 0.186 | 0.177 | 0.563 | 0.676 | 0.415 | 0.189 | 0.188 | 0.387 | 0.278 | 0.272 | 0.178 | 0.161
COR-L23 | 0.937 | 0.933 | 0.689 | 0.126 | 0.111 | 0.876 | 0.9 | 0.533 | 0.0929 | 0.0905 | 0.307 | 0.282 | 0.138 | 0.0966 | 0.109 | 0.591 | 0.286 | 0.27 | 0.105 | 0.0781
COR-L 105 | 0.727 | 0.763 | 0.529 | 0.271 | 0.269 | 0.475 | 0.386 | 0.267 | 0.279 | 0.259 | 0.709 | 0.687 | 0.595 | 0.335 | 0.369 | 0.446 | 0.436 | 0.438 | 0.353 | 0.326
Calu-6 | 0.805 | 0.69 | 0.203 | 0.116 | 0.117 | 0.821 | 0.735 | 0.221 | 0.0967 | 0.102 | 0.541 | 0.454 | 0.172 | 0.086 | 0.0935 |  |  |  |  | 

Source: the supplement of paper PMC10307832
